This is an account of results in patent publication US11365203B2, “Fluorescent dye and preparation method and use thereof” (Fluorescence Diagnosis (shanghai) Biotech Company Ltd., priority 2016, dated 2022).

Assay type in all cases: physicochemical
Series [1] in a line: Fluorescence emission intensity in dichloromethane and methanol (polarity response). Particulars: 1×10^−5 M; dichloromethane vs methanol; 25° C. The procedure:
Molecular Rotors 1, 2, 3, 22, 57, 63 were added to dichloromethane and methanol respectively to prepare a solution with a final concentration of 1×10^−5 M. Then, the solution was excited individually by excitation wavelengths of 480 nm, 480 nm and 500 nm at 25° C. to detect their fluorescence emission intensities in two different polar solvents.

A short description of series [2]: Fluorescence emission spectra of molecular rotors in glycerin and methanol. Particulars: for Maximum Emission Wavelength: 1×10^−5 M in glycerin and methanol, excited at maximum excitation wavelength of each dye; for Fluorescence Intensity Ratios in Glycerol/Methanol: 1×10^−5 M, glycerol vs methanol solution. The procedure:
The fluorescent dyes (molecular rotors) prepared in Examples 1-68 were separately dissolved in dimethyl sulfoxide to prepare respectively a mother liquor having a concentration of 1×10^−2 M, and each of the mother liquors was added individually to glycerin and methanol, and mixed uniformly, thereby solutions of a final concentration of 1×10^−5 M were prepared individually. According to the different fluorescent dyes, the fluorescence emission spectra of the fluorescent dyes were detected with the maximum excitation wavelengths of respective fluorescent dyes successively under the same conditions.

The nature of series [3]: Fluorescence emission in ethylene glycol-glycerol mixed solutions of different viscosities. Particulars: 1×10^−5 M, 16.4-946.0 cp; for Emission wavelength: excited at 480 nm; for Viscosity response of fluorescence intensity: log intensity vs log viscosity linear. The procedure: Molecular Rotors 1, 2, 3, 22, 57, and 63 were added to ethylene glycol-glycerol mixed solutions having viscosities of 16.4 cp, 29.8 cp, 64.5 cp, 143.5 cp, 377.0 cp, and 946.0 cp to prepare a solution with a final concentration of 1×10^−5 M. The solution was excited at 480 nm. The fluorescence emission spectra at different viscosities were shown in FIGS. 1, 4, 7, 10, 13, and 16. Emission wavelengths of the molecular rotors were 555 nm, 590 nm, 610 nm, 570 nm, 559 nm, and 675 nm, respectively.

Turning to `CN(C)c1cc2c(s1)c1sc(/C=C(\C#N)C(=O)OC(C)(C)C)cc1n2C` [Molecular Rotor 63], the “Polarity response of fluorescence intensity” value (“Polarity response” for short) in series [1] is listed as “insensitive to the polarity change”. Further, in series [2], the “Maximum Emission Wavelength” value was determined as 675 nm and the “Fluorescence Intensity Ratios in Glycerol/Methanol” value turned out to be 516. In series [3], the Emission wavelength is 675 nm and the “Viscosity response of fluorescence intensity” value (“Viscosity response” for short) was “sensitive to viscosity”.

Turning to “2-[2-cyano-2-(2-benzoxazole)-vinyl]-5-didecylamino-thieno[3,2,b]thiophene [Molecular Rotor 2]”, in series [1], the “Polarity response” value is on record as “insensitive to the polarity change”. Besides, in series [2], the “Maximum Emission Wavelength” value was determined as 590 nm and the “Fluorescence Intensity Ratios in Glycerol/Methanol” value is 1183. Besides, in series [3], the Emission wavelength amounted to 590 nm and the “Viscosity response” value was “sensitive to viscosity”.

Turning to `CN(CCO)c1cc2c(s1)-c1sc(/C=C(\C#N)C(=O)OC(C)(C)C)cc1[Si]2(C)C` [Molecular Rotor 57], in series [1], the “Polarity response” value is “insensitive to the polarity change”. In series [2], the “Maximum Emission Wavelength” value worked out at 659 nm and the “Fluorescence Intensity Ratios in Glycerol/Methanol” value is listed as 884. Further, in series [3], the Emission wavelength is listed as 559 nm and the “Viscosity response” value is “sensitive to viscosity”.

As for `CN(CCO)c1cc2sc(/C=C(\C#N)c3nc4ccccc4s3)cc2s1` [Molecular Rotor 3, 2-[2-cyano-2-(1,3-benzothiazol-2-yl)-vinyl]-5-(N-methyl-N-hydroxyethyl)-thieno[3,2,b]thiophene], in series [1], the “Polarity response” value is on record as “insensitive to the polarity change”. Also, in series [2], the “Maximum Emission Wavelength” value is 610 nm and the “Fluorescence Intensity Ratios in Glycerol/Methanol” value was 1455. Besides, in series [3], the Emission wavelength is 610 nm and the “Viscosity response” value is “sensitive to viscosity”.

For the compound `CCCCN(CC(O)CO)c1ccc2cc(/C=C3/N=C(C)N(C)C3=O)sc2c1` (stereo not drawn) [Molecular Rotor 27], in series [2], the “Maximum Emission Wavelength” value stood at 600 nm and the “Fluorescence Intensity Ratios in Glycerol/Methanol” value is 601.

With `CN(CCO)c1ccc2c(c1)sc1cc(/C=C(\C#N)C(=O)OC(C)(C)C)sc12` [Molecular Rotor 35], in series [2], the “Maximum Emission Wavelength” value turned out to be 626 nm and the “Fluorescence Intensity Ratios in Glycerol/Methanol” value is 476.

Consider `CN(C)c1cc2sc(/C=C(\C#N)C(=O)OC(C)(C)C)cc2s1` [Molecular Rotor 1, 2-(2-cyano-2-tert-butyl formatevinyl)-5-dimethylamino-thieno[3,2,b]thiophene], for which the “Polarity response” value in series [1] is on record as “insensitive to the polarity change”. Further, in series [2], the “Maximum Emission Wavelength” value stood at 555 nm and the “Fluorescence Intensity Ratios in Glycerol/Methanol” value amounted to 790. Further, in series [3], the Emission wavelength was 555 nm and the “Viscosity response” value is recorded as “sensitive to viscosity”.

In the case of `CCCCCCCCCCN(CCCCCCCCCC)c1ccc2cc(C=C(C#N)C#N)sc2c1` [Molecular Rotor 25], in series [2], the “Maximum Emission Wavelength” value amounted to 570 nm and the “Fluorescence Intensity Ratios in Glycerol/Methanol” value worked out at 615.

As to `CN(C)c1cc2cc3sc(C=C(C#N)C#N)cc3cc2s1` [Molecular Rotor 41], in series [2], the “Maximum Emission Wavelength” value is reported as 558 nm and the “Fluorescence Intensity Ratios in Glycerol/Methanol” value came out at 875.

`COCCOCCOCCOCCOCCN(C)c1ccc2c(c1)sc1cc(/C=C(\C#N)c3nc4ccccc4o3)sc12` [Molecular Rotor 38]: in series [2], the “Maximum Emission Wavelength” value is given as 650 nm and the “Fluorescence Intensity Ratios in Glycerol/Methanol” value turned out to be 623.

On to `CN(CC(O)C(O)C(O)C(O)CO)c1cc2sc3cc(/C=C(\C#N)C(=O)O)sc3c2s1` (stereo not drawn) [Molecular Rotor 16], for which, in series [2], the “Maximum Emission Wavelength” value is listed as 620 nm and the “Fluorescence Intensity Ratios in Glycerol/Methanol” value was found to be 951.

On to `CN(C)c1ccc2cc(/C=C(\C#N)C(=O)OC(C)(C)C)sc2c1` [Molecular Rotor 22], for which the “Polarity response” value in series [1] is listed as “insensitive to the polarity change”. In series [2], the “Maximum Emission Wavelength” value is 570 nm and the “Fluorescence Intensity Ratios in Glycerol/Methanol” value was 989. Also, in series [3], the Emission wavelength was found to be 570 nm and the “Viscosity response” value is recorded as “sensitive to viscosity”.

As for `COc1c(/C=C(\C#N)C(=O)OC(C)(C)C)sc2c(OC)c(N(C)C)sc12` [Molecular Rotor 32], in series [2], the “Maximum Emission Wavelength” value was found to be 570 nm and the “Fluorescence Intensity Ratios in Glycerol/Methanol” value is recorded as 612.

On to `CN(CC(=O)O)c1cc2sc3cc(/C=C(\C#N)c4nc5ccccc5s4)sc3c2s1` [Molecular Rotor 13, 6-[2-cyano-2-(1,3-benzothiazol-2-yl)-vinyl]-2-N-m ethylamino-N-acetic acid-dithiophene[3,2-B:2′3′-D]thiophene], for which, in series [2], the “Maximum Emission Wavelength” value amounted to 690 nm and the “Fluorescence Intensity Ratios in Glycerol/Methanol” value stood at 352.

On to `CN(CCOCCCS(=O)(=O)O)c1cc2cc3cc(/C=C(\C#N)C(=O)OC(C)(C)C)sc3cc2s1` [Molecular Rotor 49], for which, in series [2], the “Maximum Emission Wavelength” value stood at 559 nm and the “Fluorescence Intensity Ratios in Glycerol/Methanol” value worked out at 612.

For `CCCCCCCCCCN(CCCCCCCCCC)c1cc2cc3sc(/C=C(\C#N)C(=O)OC(C)(C)C)cc3cc2s1` [Molecular Rotor 42], in series [2], the “Maximum Emission Wavelength” value is reported as 558 nm and the “Fluorescence Intensity Ratios in Glycerol/Methanol” value came to 924.

With `CN(C)c1ccc2c(c1)sc1cc(C=C(C#N)C#N)sc12` [Molecular Rotor 34], in series [2], the “Maximum Emission Wavelength” value stood at 626 nm and the “Fluorescence Intensity Ratios in Glycerol/Methanol” value was found to be 1012.

Take `CN(C)c1cc2sc3cc(C=C(C#N)C#N)sc3c2s1` [Molecular Rotor 14]: in series [2], the “Maximum Emission Wavelength” value is given as 620 nm and the “Fluorescence Intensity Ratios in Glycerol/Methanol” value amounted to 681.

Take `CN(CCC#N)c1ccc2c(c1)sc1cc(/C=C(\C#N)c3nc4ccccc4s3)sc12` [Molecular Rotor 39]: in series [2], the “Maximum Emission Wavelength” value is 667 nm and the “Fluorescence Intensity Ratios in Glycerol/Methanol” value came to 541.

`COCCOCCOCCOCCOCCN(C)c1cc2cc3sc(/C=C4/N=C(C)N(C)C4=O)cc3cc2s1` [Molecular Rotor 45]: in series [2], the “Maximum Emission Wavelength” value amounted to 585 nm and the “Fluorescence Intensity Ratios in Glycerol/Methanol” value is 812.

Take `COCCNC(=O)/C(C#N)=C/c1cc2ccc(OC)cc2s1` [Molecular Rotor 30]: in series [2], the “Maximum Emission Wavelength” value came out at 520 nm and the “Fluorescence Intensity Ratios in Glycerol/Methanol” value was 513.
